Our source for the IC50 values is patent US7074789B2, “Kinase inhibitors” (Amgen Inc., priority 1999, dated 2006).

What all share (assay type): biochemical
For one experiment, the target named is T1, AKT (Homo sapiens, UniProt Q9Y243).
T1 construct: Kinases are expressed as either kinase domains or full length constructs; made in house
The experiment is described as follows: Kinase inhibition assay (33P transfer), AKT. The conditions noted are these: Table 2, class symbols A-E; read-out: AKT3-1. An outline of the steps: (§1)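 Steps: express kinase as GST or polyHistidine fusion in E. coli or High Five cells; optionally co-express or mix with regulatory polypeptides; incubate with 33P-ATP and plate-attached poly(Glu,Tyr) 4:1 or poly(Arg,Ser) 3:1; wash with 0.5% phosphoric acid; count by liquid scintillation.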

Another experiment deals with T2, Kdr (Homo sapiens, UniProt P35968).
T2 construct: Kinases are expressed as either kinase domains or full length constructs; made in house
The experiment is described as follows: Kinase inhibition assay (33P transfer), Kdr. The conditions noted are these: Table 3, class symbols; read-out: KDR-1. An outline of the steps: as §1

A further experiment deals with T3, IGFR-1 (Homo sapiens, UniProt P08069).
T3 construct: Kinases are expressed as either kinase domains or full length constructs; made in house
T3 sequence (P08069 31-1367): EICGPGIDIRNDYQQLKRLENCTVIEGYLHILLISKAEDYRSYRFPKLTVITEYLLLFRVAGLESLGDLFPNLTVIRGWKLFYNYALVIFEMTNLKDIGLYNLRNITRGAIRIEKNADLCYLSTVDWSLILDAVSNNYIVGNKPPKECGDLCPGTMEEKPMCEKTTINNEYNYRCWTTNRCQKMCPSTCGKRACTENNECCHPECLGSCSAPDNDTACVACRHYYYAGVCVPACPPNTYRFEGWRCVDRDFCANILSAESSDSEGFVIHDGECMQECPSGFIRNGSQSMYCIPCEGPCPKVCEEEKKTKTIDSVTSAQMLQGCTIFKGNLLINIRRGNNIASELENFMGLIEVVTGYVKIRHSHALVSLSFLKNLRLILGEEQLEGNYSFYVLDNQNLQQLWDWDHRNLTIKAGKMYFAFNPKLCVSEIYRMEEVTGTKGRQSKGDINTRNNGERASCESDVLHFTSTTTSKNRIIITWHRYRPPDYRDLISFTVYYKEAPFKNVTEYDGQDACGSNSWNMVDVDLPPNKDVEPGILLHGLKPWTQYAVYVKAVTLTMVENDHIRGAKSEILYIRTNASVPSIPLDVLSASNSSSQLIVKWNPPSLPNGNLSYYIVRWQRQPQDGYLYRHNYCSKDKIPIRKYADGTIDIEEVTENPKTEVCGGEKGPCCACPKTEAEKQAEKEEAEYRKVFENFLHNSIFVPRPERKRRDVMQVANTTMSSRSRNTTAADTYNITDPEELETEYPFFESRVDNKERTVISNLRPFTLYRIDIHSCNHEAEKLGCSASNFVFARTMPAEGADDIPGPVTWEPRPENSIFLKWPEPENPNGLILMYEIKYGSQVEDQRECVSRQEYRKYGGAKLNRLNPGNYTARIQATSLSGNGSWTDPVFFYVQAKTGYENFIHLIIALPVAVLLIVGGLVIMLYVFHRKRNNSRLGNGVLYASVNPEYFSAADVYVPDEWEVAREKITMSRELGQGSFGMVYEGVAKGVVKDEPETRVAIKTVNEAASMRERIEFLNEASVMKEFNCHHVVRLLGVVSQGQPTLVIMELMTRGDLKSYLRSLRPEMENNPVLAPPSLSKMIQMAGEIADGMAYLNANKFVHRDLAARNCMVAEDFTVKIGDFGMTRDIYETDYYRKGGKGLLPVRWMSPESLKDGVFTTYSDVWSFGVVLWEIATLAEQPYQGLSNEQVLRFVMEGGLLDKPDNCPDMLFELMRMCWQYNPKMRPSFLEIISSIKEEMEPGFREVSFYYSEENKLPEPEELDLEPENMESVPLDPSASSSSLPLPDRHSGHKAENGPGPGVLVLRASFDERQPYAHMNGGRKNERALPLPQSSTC
The experiment is described as follows: Kinase inhibition assay (33P transfer), IGFR-1. The conditions noted are these: Table 2, class symbols A-E.

Another experiment deals with T4, PDGFRB (Homo sapiens, UniProt P09619).
T4 construct: Kinases are expressed as either kinase domains or full length constructs; made in house
The experiment is described as follows: Kinase inhibition assay (33P transfer), PDGFRB. Conditions: read-out: PDGFRB-1.

Another experiment deals with T5, ErbB2 (Homo sapiens, UniProt P04626).
T5 construct: Kinases are expressed as either kinase domains or full length constructs; made in house
T5 sequence (P04626 23-1255, species assumed): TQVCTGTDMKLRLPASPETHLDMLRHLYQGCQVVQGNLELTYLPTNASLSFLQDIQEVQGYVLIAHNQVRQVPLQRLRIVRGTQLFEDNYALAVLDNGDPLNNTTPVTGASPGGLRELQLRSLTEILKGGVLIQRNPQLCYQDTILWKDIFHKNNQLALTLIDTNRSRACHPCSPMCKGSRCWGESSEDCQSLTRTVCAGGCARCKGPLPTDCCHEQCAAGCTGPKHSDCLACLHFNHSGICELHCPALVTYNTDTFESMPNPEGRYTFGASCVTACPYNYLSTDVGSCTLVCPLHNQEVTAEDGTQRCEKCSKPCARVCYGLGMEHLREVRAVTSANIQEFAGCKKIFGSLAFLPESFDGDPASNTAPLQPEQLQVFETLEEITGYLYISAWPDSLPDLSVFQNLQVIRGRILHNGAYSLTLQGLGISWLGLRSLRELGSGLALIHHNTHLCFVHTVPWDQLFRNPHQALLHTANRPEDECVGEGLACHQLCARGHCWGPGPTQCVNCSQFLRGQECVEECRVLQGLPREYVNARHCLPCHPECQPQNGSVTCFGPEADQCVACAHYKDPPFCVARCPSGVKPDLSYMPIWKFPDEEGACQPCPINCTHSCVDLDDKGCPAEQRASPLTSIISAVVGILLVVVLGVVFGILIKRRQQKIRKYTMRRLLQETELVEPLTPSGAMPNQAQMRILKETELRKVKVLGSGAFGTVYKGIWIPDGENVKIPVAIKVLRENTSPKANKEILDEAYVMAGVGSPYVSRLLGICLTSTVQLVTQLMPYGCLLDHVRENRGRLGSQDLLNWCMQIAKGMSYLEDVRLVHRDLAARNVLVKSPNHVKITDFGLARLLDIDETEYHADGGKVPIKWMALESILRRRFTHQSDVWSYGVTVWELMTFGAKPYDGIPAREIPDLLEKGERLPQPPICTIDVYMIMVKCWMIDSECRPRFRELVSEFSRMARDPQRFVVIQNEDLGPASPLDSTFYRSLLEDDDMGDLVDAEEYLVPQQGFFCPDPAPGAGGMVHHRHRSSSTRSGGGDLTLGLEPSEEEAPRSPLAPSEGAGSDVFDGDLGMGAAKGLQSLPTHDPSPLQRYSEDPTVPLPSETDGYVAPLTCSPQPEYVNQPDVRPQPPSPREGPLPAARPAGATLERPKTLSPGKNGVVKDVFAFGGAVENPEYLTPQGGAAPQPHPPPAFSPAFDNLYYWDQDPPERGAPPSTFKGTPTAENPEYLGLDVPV
The experiment is described as follows: Kinase inhibition assay (33P transfer), ErbB2. The conditions noted are these: read-out: ErbB2-2. An outline of the steps:
(§2)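 Each enzyme, purified to near homogeneity by affinity chromatography, was incubated with ATP carrying 33P and a substrate polymer fixed to the plate. Unbound label was removed with dilute phosphoric acid (0.5%) before adding scintillant and counting. Potency is given as the compound level cutting label uptake by 50%.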

The target in another experiment is T6, Zap-70 (Homo sapiens, UniProt P43403).
T6 construct: Kinases are expressed as either kinase domains or full length constructs; made in house
T6 sequence (P43403 1-619): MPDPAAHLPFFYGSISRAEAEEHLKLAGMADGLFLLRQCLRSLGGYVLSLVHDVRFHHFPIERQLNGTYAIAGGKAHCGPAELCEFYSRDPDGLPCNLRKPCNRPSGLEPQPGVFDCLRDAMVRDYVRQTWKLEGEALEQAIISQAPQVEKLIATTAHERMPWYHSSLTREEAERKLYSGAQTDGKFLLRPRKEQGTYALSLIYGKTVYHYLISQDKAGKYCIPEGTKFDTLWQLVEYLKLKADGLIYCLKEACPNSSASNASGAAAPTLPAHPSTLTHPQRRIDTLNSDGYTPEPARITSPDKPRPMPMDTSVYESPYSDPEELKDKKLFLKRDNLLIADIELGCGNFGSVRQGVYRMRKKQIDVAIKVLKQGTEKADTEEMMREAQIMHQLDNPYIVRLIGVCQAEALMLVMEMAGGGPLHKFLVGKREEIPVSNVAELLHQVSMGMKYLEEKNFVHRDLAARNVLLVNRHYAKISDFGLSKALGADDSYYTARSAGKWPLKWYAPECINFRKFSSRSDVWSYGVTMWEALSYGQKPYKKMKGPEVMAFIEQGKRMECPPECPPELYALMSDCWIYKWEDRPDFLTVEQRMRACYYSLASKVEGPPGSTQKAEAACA
The experiment in a line: Kinase inhibition assay (33P transfer), Zap-70. Conditions: Table 3, class symbols; read-out: Zap-1. Put shortly:
as §1

Another experiment deals with T7, EGFR (Homo sapiens, UniProt P00533).
T7 construct: Kinases are expressed as either kinase domains or full length constructs; made in house
T7 sequence (P00533 25-1210, species assumed): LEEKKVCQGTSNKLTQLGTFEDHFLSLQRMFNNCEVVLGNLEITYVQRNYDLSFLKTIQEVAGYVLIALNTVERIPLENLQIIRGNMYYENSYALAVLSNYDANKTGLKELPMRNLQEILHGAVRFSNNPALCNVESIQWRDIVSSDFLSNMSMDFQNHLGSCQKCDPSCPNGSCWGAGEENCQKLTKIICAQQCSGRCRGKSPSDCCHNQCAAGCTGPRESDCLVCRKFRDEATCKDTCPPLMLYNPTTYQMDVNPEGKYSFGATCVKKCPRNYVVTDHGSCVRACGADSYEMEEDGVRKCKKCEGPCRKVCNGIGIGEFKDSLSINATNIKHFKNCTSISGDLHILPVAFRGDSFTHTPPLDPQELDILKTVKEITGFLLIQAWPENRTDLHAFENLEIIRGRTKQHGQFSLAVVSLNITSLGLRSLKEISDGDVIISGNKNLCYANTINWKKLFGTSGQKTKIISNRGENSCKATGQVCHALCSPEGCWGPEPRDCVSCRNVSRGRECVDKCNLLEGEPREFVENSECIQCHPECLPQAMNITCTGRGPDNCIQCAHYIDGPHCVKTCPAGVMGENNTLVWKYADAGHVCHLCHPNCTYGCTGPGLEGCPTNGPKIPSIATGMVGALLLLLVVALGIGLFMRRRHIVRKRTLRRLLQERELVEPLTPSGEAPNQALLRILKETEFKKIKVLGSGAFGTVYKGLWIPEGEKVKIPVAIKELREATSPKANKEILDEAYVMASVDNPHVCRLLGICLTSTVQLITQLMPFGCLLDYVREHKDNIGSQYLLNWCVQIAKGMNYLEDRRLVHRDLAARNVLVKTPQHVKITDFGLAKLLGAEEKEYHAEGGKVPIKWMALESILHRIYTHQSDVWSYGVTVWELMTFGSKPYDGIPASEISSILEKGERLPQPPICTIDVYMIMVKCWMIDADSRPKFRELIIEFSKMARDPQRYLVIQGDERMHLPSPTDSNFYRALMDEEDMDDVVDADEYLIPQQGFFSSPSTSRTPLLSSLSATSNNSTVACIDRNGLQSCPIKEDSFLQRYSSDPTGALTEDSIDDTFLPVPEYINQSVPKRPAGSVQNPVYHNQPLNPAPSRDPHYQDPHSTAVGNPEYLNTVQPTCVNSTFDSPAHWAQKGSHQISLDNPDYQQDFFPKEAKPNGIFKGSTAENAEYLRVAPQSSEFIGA
The experiment is described as follows: Kinase inhibition assay (33P transfer), EGFR. Conditions: Table 2, class symbols A-E; read-out: EGFR-1. Put shortly:
as §2

The next experiment has as its target T8, Itk (Homo sapiens, UniProt Q08881).
T8 construct: Kinases are expressed as either kinase domains or full length constructs; made in house
T8 sequence (Q08881 1-620): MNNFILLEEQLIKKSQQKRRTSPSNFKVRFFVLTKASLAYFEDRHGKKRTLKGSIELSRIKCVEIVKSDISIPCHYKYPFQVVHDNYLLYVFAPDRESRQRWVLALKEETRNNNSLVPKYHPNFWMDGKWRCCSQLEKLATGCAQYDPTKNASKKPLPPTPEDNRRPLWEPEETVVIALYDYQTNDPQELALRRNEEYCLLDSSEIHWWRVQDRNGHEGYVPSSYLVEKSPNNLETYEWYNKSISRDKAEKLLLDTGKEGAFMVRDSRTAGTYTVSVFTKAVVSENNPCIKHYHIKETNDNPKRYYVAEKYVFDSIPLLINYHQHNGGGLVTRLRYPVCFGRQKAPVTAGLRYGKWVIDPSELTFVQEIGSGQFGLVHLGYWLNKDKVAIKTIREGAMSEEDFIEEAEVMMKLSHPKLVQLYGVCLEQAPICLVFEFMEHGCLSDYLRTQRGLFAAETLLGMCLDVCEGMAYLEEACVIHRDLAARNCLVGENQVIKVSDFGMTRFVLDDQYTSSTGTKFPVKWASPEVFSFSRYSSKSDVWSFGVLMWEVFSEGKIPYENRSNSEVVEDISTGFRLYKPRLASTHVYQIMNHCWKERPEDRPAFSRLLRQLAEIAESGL
The experiment in a line: Kinase inhibition assay (33P transfer), Itk. The conditions noted are these: Table 3, class symbols; read-out: Itk-1. Put shortly: as §2

The next experiment has as its target T9, c-Met (Homo sapiens, UniProt P08581).
T9 construct: Kinases are expressed as either kinase domains or full length constructs; made in house
The experiment in a line: Kinase inhibition assay (33P transfer), c-Met. Conditions: Table 2, class symbols A-E; read-out: Met-1. An outline of the steps: as §2

In a further experiment the target is T10, Lck (Homo sapiens, UniProt P06239).
T10 construct: Kinases are expressed as either kinase domains or full length constructs; made in house
T10 sequence (P06239 whole entry, species assumed, the tested form may be a part): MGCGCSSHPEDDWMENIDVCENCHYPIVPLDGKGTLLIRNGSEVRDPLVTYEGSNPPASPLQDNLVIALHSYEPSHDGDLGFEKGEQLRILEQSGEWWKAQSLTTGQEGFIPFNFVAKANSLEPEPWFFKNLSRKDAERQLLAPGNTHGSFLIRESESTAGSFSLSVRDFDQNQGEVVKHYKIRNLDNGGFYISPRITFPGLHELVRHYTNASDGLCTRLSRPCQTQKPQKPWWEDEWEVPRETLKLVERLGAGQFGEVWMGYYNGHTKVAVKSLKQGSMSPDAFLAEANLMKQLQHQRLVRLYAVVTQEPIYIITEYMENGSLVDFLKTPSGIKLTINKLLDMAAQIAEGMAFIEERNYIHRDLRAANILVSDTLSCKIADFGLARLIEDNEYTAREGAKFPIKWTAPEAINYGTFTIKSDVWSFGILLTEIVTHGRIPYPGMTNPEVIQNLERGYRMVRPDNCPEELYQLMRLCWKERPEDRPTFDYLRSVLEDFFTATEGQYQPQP
The experiment is described as follows: Kinase inhibition assay (33P transfer), Lck. The conditions noted are these: Table 3, class symbols; read-out: Lck-1. Put shortly:
as §1

T1 sequence (Q9Y243 whole entry, the tested form may be a part): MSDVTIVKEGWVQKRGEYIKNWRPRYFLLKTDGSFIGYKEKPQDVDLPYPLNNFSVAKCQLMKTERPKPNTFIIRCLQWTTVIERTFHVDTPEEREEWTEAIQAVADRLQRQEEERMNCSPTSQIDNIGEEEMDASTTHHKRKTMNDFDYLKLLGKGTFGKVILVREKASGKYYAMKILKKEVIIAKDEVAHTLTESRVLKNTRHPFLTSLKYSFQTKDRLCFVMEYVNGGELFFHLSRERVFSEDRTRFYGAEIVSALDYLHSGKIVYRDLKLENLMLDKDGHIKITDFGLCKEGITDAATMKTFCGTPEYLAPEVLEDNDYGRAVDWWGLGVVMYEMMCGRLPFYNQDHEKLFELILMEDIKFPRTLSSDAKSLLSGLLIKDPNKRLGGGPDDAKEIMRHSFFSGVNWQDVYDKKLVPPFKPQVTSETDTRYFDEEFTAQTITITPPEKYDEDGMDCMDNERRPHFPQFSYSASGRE

For the compound `C#Cc1cccc(Nc2ncnc(Nc3cc(-c4ccccc4)n[nH]3)n2)c1` [Compound 1008], the IC50 on AKT is > 12.7 µM; at Kdr, 1130 to 6790 nM; against IGFR-1, < 1.13 µM; at PDGFRB, > 12700 nM; on ErbB2, > 12.7 µM; at Zap-70 it was > 12.7 µM. The IC50 at EGFR, on Itk, at c-Met and at Lck was 1.13 to 6.79 µM in each case.

Turning to `c1ccc(-c2cc(Nc3ncnc(Nc4cccc(-c5cnco5)c4)n3)[nH]n2)cc1` [Compound 1010], the IC50 was 1.01 to 6.05 µM at AKT; 1010 to 6050 nM on Kdr; < 1.01 µM on IGFR-1; 1010 to 6050 nM at PDGFRB; 1.01 to 6.05 µM at ErbB2; > 11.4 µM at Zap-70. Further, the IC50 at EGFR is 1.01 to 6.05 µM; at Itk it was 6.05 to 8.83 µM; on c-Met, < 1.01 µM; on Lck, 1.01 to 6.05 µM.

On to `c1ccc(-c2cc(Nc3ncnc(Nc4ccc5[nH]ncc5c4)n3)[nH]n2)cc1` [Compound 1013], for which the IC50 at AKT was 1.08 to 6.5 µM; on Kdr it was < 1080 nM; against IGFR-1, < 1.08 µM; on PDGFRB, < 1080 nM; on ErbB2 it was 1.08 to 6.5 µM; at Zap-70, 6.5 to 9.48 µM. Moreover, the IC50 at EGFR, at Itk, at c-Met and at Lck was 1.08 to 6.5 µM in each case.

As to `O=C(O)c1cccc(Nc2ncnc(-n3c(NCc4ccccc4)nc4ccccc43)n2)c1` [Compound 1069], the IC50 on AKT was > 10.3 µM; on Kdr, < 914 nM; against IGFR-1, > 10.3 µM; on PDGFRB, < 914 nM; on ErbB2, < 0.914 µM; on Zap-70, > 10.3 µM. Moreover, the IC50 on EGFR was < 0.914 µM; at Itk it was > 10.3 µM; on c-Met it was > 10.3 µM; on Lck, > 10.3 µM.

For `COc1ccc(CNc2nc3ccccc3n2-c2ncnc(Nc3cccc(C(=O)O)c3)n2)cc1` [Compound 1070], the IC50 was 5.13 to 7.49 µM on AKT; 856 to 5130 nM on Kdr; > 9.63 µM against IGFR-1; 856 to 5130 nM on PDGFRB; > 9.63 µM at ErbB2; > 9.63 µM at Zap-70. The IC50 on EGFR, at Itk, on c-Met and at Lck was > 9.63 µM throughout.

As to `COc1cc(Nc2ncnc(-n3ccnc3Cl)n2)cc(OC)c1OC` [Compound 1071], the IC50 is > 12.4 µM at AKT; 9650 to 12400 nM on Kdr; 1.1 to 6.62 µM on IGFR-1; 1100 to 6620 nM on PDGFRB; > 12.4 µM at ErbB2; > 12.4 µM on Zap-70. For the same compound, the IC50 at EGFR was 1.1 to 6.62 µM; on Itk, 1.1 to 6.62 µM; at c-Met it was > 12.4 µM; on Lck it was 9.65 to 12.4 µM.

Turning to `COc1cc(Nc2ncnc(-c3cccnc3Nc3ccccc3)n2)ccc1NC(=O)CCCN1CCNCC1` [Compound 1093], the IC50 was > 8.34 µM on AKT; < 741 nM at Kdr; 6.49 to 8.34 µM at IGFR-1; < 741 nM on PDGFRB; > 8.34 µM at ErbB2; > 8.34 µM on Zap-70. The IC50 at EGFR lay in the range of 0.741 to 4.45 µM; on Itk it was 4.45 to 6.49 µM; at c-Met, 0.741 to 4.45 µM; at Lck, 0.741 to 4.45 µM.

In the case of `O=C(O)Cc1cccc(Nc2ncnc(-c3cccnc3Nc3ccccc3)n2)c1` [Compound 1094], the IC50 is > 11.3 µM on AKT; < 1000 nM on Kdr; > 11.3 µM against IGFR-1; < 1000 nM at PDGFRB; 6.02 to 8.78 µM on ErbB2; 6.02 to 8.78 µM on Zap-70. The IC50 is 1 to 6.02 µM on EGFR, > 11.3 µM at Itk, 1 to 6.02 µM at c-Met and > 11.3 µM on Lck.

For `c1ccc(Nc2ncccc2-c2ncnc(Nc3cccc(Cn4ccnn4)c3)n2)cc1` [Compound 1095], the IC50 at AKT is > 10.7 µM; at Kdr it was < 949 nM; at IGFR-1, > 10.7 µM; on PDGFRB it was < 949 nM; at ErbB2 it was > 10.7 µM; at Zap-70, > 10.7 µM. In addition, the IC50 on EGFR, at Itk, at c-Met and on Lck was > 10.7 µM in each case.

Take `COc1cc(Nc2ncnc(-c3cccnc3NC(C)C)n2)ccc1NC(=O)CCCN1CCNCC1` [Compound 1096]: the IC50 was 6.92 to 8.9 µM on AKT; 791 to 4750 nM on Kdr; > 8.9 µM at IGFR-1; < 791 nM at PDGFRB; > 8.9 µM at ErbB2; > 8.9 µM on Zap-70. For the same compound, the IC50 on EGFR is > 8.9 µM; at Itk, 4.75 to 6.92 µM; at c-Met it was 6.92 to 8.9 µM; on Lck it was 0.791 to 4.75 µM.

As for `CC(C)Nc1ncccc1-c1ncnc(Nc2cccc(CC(=O)O)c2)n1` [Compound 1097], the IC50 on AKT is > 12.3 µM; at Kdr, 1100 to 6590 nM; against IGFR-1, > 12.3 µM; at PDGFRB it was < 1100 nM; on ErbB2, > 12.3 µM; at Zap-70, 6.59 to 9.6 µM. The IC50 was > 12.3 µM on EGFR, > 12.3 µM on Itk, 6.59 to 9.6 µM at c-Met and 1.1 to 6.59 µM on Lck.

Consider `CC(C)Nc1ncccc1-c1ncnc(Nc2cccc(Cn3ccnn3)c2)n1` [Compound 1098], for which the IC50 at AKT was 6.19 to 9.03 µM; on Kdr it was 1030 to 6190 nM; on IGFR-1 it was > 11.6 µM; on PDGFRB, 1030 to 6190 nM; at ErbB2, > 11.6 µM; at Zap-70 it was > 11.6 µM. Further, the IC50 is 6.19 to 9.03 µM at EGFR, 1.03 to 6.19 µM at Itk, 6.19 to 9.03 µM at c-Met and 1.03 to 6.19 µM on Lck.

In the case of `O=C(O)Cc1cccc(Nc2ncnc(-c3cccnc3NCc3ccccc3)n2)c1` [Compound 1099], the IC50 at AKT was > 10.9 µM; on Kdr it was < 970 nM; on IGFR-1, > 10.9 µM; at PDGFRB, < 970 nM; at ErbB2, 0.97 to 5.82 µM; on Zap-70, > 10.9 µM. The IC50 on EGFR was < 0.97 µM; at Itk, > 10.9 µM; at c-Met, 0.97 to 5.82 µM; at Lck it was 0.97 to 5.82 µM.

With `O=C(O)Cc1cccc(Nc2ncnc(-c3cccnc3NCc3ccc(F)cc3)n2)c1` [Compound 1100], the IC50 is > 10.5 µM at AKT; < 929 nM at Kdr; > 10.5 µM at IGFR-1; < 929 nM on PDGFRB; 0.929 to 5.58 µM on ErbB2; > 10.5 µM on Zap-70. In addition, the IC50 on EGFR is 0.929 to 5.58 µM; at Itk it was > 10.5 µM; at c-Met, 8.13 to 10.5 µM; at Lck, 8.13 to 10.5 µM.
